Consider 15 compounds from ChEMBL document CHEMBL1155179 (J Med Chem, 2009).

Type in all cases: tissue-based
The target in assay [1] is Synaptic vesicular amine transporter (Rattus norvegicus) (UniProt Q01827). Nature of the assay: Ratio of Ki for displacement of [3H]DTBZ from VMAT2 dihydrotetrabenazine binding site in rat brain synaptic vesicle to Ki for inhibition of [3H]dopamine uptake at VMAT2 in rat brain synaptic vesicle.
Assay [2] has as its target T1, Synaptic vesicular amine transporter (Rattus norvegicus, UniProt Q01827). Put plainly: Inhibition of [3H]dopamine uptake at VMAT2 in rat brain synaptic vesicle by liquid scintillation spectroscopy.
In assay [3] the target is T1, Synaptic vesicular amine transporter. Put plainly: Displacement of [3H]DTBZ from VMAT2 dihydrotetrabenazine binding site in rat brain synaptic vesicle by scintillation counting.

The structures appear in SMILES notation.

Chain of Synaptic vesicular amine transporter (Rattus norvegicus) (Q01827 whole entry): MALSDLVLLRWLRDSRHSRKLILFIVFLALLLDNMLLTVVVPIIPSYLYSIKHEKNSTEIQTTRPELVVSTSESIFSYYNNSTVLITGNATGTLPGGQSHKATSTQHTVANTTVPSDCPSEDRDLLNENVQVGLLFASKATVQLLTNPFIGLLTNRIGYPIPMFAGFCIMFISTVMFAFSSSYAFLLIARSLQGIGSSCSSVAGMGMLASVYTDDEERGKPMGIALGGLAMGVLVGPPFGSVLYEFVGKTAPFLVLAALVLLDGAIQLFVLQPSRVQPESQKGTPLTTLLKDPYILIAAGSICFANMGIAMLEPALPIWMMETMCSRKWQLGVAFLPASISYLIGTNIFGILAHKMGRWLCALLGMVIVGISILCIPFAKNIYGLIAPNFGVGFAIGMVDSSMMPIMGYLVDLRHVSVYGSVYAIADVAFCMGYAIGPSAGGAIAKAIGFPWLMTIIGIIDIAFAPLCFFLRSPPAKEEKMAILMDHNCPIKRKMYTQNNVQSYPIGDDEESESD
T1 sequence (Q01827 whole entry): as above

Consider `c1ccc(CC[C@H]2CCC[C@@H](CCc3ccccc3)N2)cc1`, for which the Ratio Ki in assay [1] came to 100. In assay [2], this compound displayed a Ki of 23 nM.
For `c1ccc(CC[C@@H]2CC[C@@H](CCc3ccccc3)N2)cc1`, the Ratio Ki in assay [1] was 63. The results for the Ki in assay [2] and in assay [3] were 54 nM and 3400 nM, respectively.
For `OC[C@@H](c1ccccc1)N1[C@H](CCc2ccccc2)CC[C@@H]1CCc1ccccc1` the same measures were 19.6, 140 nM and 2750 nM.
As for `c1ccc(CC[C@@H]2CC[C@H](CCc3ccccc3)N2)cc1`, the Ratio Ki in assay [1] is 106. For the same compound, the results for the Ki in assay [2] and in assay [3] were 29 nM and 3060 nM, respectively.
`OC[C@H](c1ccccc1)N1[C@H](CCc2ccccc2)CC[C@H]1CCc1ccccc1`: the Ratio Ki in assay [1] was 2.6. Further, the figures for the inhibition constant (Ki) in assay [2] and in assay [3] were 1940 nM and 5050 nM, respectively.
In the case of `OC[C@@H](c1ccccc1)N1[C@@H](CCc2ccccc2)CC[C@@H]1CCc1ccccc1`, the Ratio Ki in assay [1] came out at 20.7. Further, the Ki in assay [2] is 270 nM; in assay [3] it was 5610 nM.
For `CN1[C@H](CCCc2ccccc2)CC[C@@H]1CCCc1ccccc1`, in that order: 23.2, 120 nM and 2780 nM.
`c1ccc(CCC[C@@H]2CC[C@H](CCCc3ccccc3)N2)cc1`: the Ratio Ki in assay [1] was 19.3. In addition, the Ki in assay [2] was 14 nM; in assay [3], 270 nM.
For `CN1[C@H](CCc2ccccc2)CC[C@H]1CCc1ccccc1` the same measures were 33.1, 120 nM and 3970 nM.
For the compound `OC[C@H](c1ccccc1)N1[C@H](CCc2ccccc2)CC[C@@H]1CCc1ccccc1`, in assay [1], the Ratio Ki was 3.36. In addition, the Ki came to 1290 nM in assay [2] and 4340 nM in assay [3].
Take `CN1[C@H](CCc2ccccc2)CC[C@@H]1CCc1ccccc1`: in assay [1], the Ratio Ki was found to be 32.6. For the same compound, the Ki was 270 nM in assay [2] and 8800 nM in assay [3].
As for `c1ccc(C[C@H]2CC[C@@H](Cc3ccccc3)N2)cc1`, the Ratio Ki in assay [1] was 176. Further, the Ki amounted to 9.3 nM in assay [2] and 1640 nM in assay [3].
Take `c1ccc(CC[C@H]2CC[C@H](CCc3ccccc3)N2)cc1`: the Ratio Ki in assay [1] amounted to 38. Also, the Ki in assay [2] turned out to be 35 nM; in assay [3], 1330 nM.
For `CN1[C@@H](Cc2ccccc2)CC[C@H]1Cc1ccccc1` the same measures were 130, 19 nM and 2460 nM.
As for `CN1[C@@H](CCc2ccccc2)CC[C@@H]1CCc1ccccc1`, in assay [1], the Ratio Ki worked out at 85. For the same compound, the results for the Ki in assay [2] and in assay [3] were 170 nM and 14500 nM, respectively.
